{
  "source": "patent US20150038417A1",
  "about": "“GLP-1 Agonists” (Novo Nordisk A/S, priority 2011, published 2015)",
  "tested_on": "Normal male Sprague Dawley rats",
  "test": "Effect of liraglutide on alcohol consumption (two-bottle choice: water vs 10% alcoholic drink)",
  "assay_type": "in vivo, rat",
  "excerpt": "Certain strains of rats are alcohol dependent and consume large amounts of alcohol if given the choice.\nNormal male Sprague Dawley rats were housed individually and fed normal rat chow. Each rat had access to two drinking bottles, one of them containing water and one of them containing a 10% alcoholic drink (diluted Toffee liquor from ALDI®). The rats were acclimatised to the alcoholic drink for a least one week. Consumption of water and the alcoholic drink were continuously recorded on line using the BIOdaq food and water intake monitoring system http://www.bodaq.com/®.\nBasal water and alcoholic drink consumption was recorded on a 24 h daily basis. After this had stabilised, consumption of water and alcoholic drink was recorded over a 24 h period. […] Water and alcohol consumption were recorded for 24 h after injection.",
  "data": [
    {"substance": "Liraglutide (HAEGTFTSDVSSYLEGQAAKEFIAWLVRGRG; chains of the INN, looked up)", "values": [
      {"measurement": "Accumulated fluid intake over 24 h, alcohol (10% alcoholic drink), after Liraglutide (Mean ± SEM)", "setting": "30 μg/kg liraglutide s.c., single dose, 24 h after injection, n=8, same group before dosing 25.6 ± 0.6 g, p < 0.001, paired t-test", "value": "16.1 ± 1.3", "unit": "g"},
      {"measurement": "Effect on 24 h intake of alcoholic drink and water (in words)", "setting": "30 μg/kg liraglutide s.c., before vs after administration", "value": "significantly and selectively reduced intake of alcoholic drink and not water"},
      {"measurement": "Alcohol intake compared with vehicle treated rats (in words)", "setting": "rats offered to choose between alcohol and water", "value": "significantly reduces the alcohol intake"}
    ]}
  ]
}
